Measured values as given in patent US8217178B2, “[4-(5-aminomethyl-2-fluoro-phenyl)-piperidin-1-yl]-[7-flouro-1-(2-methoxy-ethyl)-4-trifluorom as an inhibitor of mast cell tryptase” (Sanofi, priority 2008, dated 2012).

Experiments:
[1] = system: antigen-induced airway hyperreactivity; assay: Antigen-induced airway hyperactivity assay in ovalbumin-sensitized guinea pigs; assay type: in vivo, guinea pig; conditions: for Increase in Airway Resistance (Area Under Curve) / Dynamic Lung Compliance (Area Under Curve): 24 hours prior to antigen challenge, histamine challenge i.v.; for Increase in Airway Resistance (Area Under Curve): Saline 3490, OVA (no treatment) 12586; for Dynamic Lung Compliance (Area Under Curve): Saline −799, OVA (no treatment) −1386
Procedure: Antigen sensitization and challenge: Male Hartley guinea pigs (225-250 g) were sensitized with ovalbumin (0.5 ml of 1% solution, i.p. and s.c.) on day 1 (Aug. 25, 2008). On day 4 (Aug. 28, 2008), animals received a booster injection (i.p.) of 0.5 ml of 1% ovalbumin. On day 21 (Sep. 16, 2008), animals were orally dosed (2 ml/kg) with either vehicle (0.5% methylcellulose/0.2% Tween 80) or compound(s) 24 hours prior to antigen challenge. Thirty minutes before antigen challenge the animals were also injected with mepyramine (10 mg/kg, i.p.) to prevent anaphylactic collapse. Animals were then exposed for 20 min to an aerosol of 1% ovalbumin using a DeVilbiss Ultraneb nebulizer. Negative control animals were not challenged. Sensitizing solution: One gram (1 g) of albumin from chicken egg white (Sigma A55031G; lot#087K7004) was added to 100 ml of saline and allowed to go into solution.
Airway resistance measurement: Eighteen to twenty four hours after challenge, animals were anesthetized, (0.5 ml dose (i.m.) of cocktail containing ketamine (62 mg/kg), xylazine (30 mg/kg) and Promace (1.5 mg/kg)), surgically prepared and then placed in a whole body plethysmograph. Animals were connected to Ugo-Basile ventilators delivering a tidal volume of 1 ml/100 g at a rate of 50 breaths/minute via a tracheal cannula. The jugular vein is also cannulated for histamine challenge. A-water filled esophageal cannula was placed such that transpulmonary pressure could be recorded. Transpulmonary pressure was measured as the difference between the tracheal and esophageal cannulas using a differential pressure transducer. The volume, airflow, and transpulmonary pressure signals are monitored using a pulmonary analysis system (Buxco XA software) and used to calculate pulmonary resistance (cmH2O/ml/s) and dynamic compliance (ml/cmH20). Airway resistance and dynamic compliance are computed on a breath-by-breath basis. Histamine is administered intravenously and reactivity to increasing concentrations (1-20 μg/kg) assessed.

[2] = Suspension of benzoate salt in water, solid form checked by XRPD and thermal analysis; assay type: physicochemical; conditions: 50 mg/mL free base equivalent in nanopure water, total 29 hours as suspension, then air dried
Procedure: Sample Preparation: Material was prepared as in the reference example 3 above. A suspension of the benzoate salt was prepared as 50 mg/mL free base equivalent in nanopure water, which was 63.6 mg salt in 1 mL water. Sample was stirred at 500 rpm overnight and allowed to stand for 4 hours before it was centrifuged (total 29 hours as suspension). It was centrifuged at 13000 rpm for 8 minutes and the collected solid was analyzed by XRPD (x-ray power diffraction) as wet sample and evaluated by microscope. The wet solid was then air dried at ambient room temperature overnight to be analyzed as the dry sample by XRPD and thermal analysis. The as is drug substance is compared as the initial material. The XRPD of free base drug substance was also used as the comparison. The benzoate appeared to be a variable hydrate, with the XRPD displaying the same peaks for different amounts of water.
• XRPD Method • Siemens Model D5000 with Cu anticathode • Program: 1.0 Sec. dql • Range: 2° to 40°. […]

[3] = molecular target: T1, recombinant human β tryptase (Homo sapiens, UniProt Q15661); assay: β-Tryptase inhibitory potency, in vitro enzyme assay (IC50 and Ki determination); assay type: biochemical; conditions: 0.5 mM substrate S2366 (2×Km), room temperature, pH 8.2; Ki=IC50/(1+[Substrate]/Km)
T1 construct: made in house; host or cells: yeast cells
Procedure: Tryptase inhibition activity is confirmed using either isolated human lung tryptase or recombinant human β tryptase expressed in yeast cells. Essentially equivalent results are obtained using isolated native enzyme or the expressed enzyme. The assay procedure employs a 96 well microplate (Costar 3590) using L-pyroglutamyl-L-prolyl-L-arginine-para-nitroanilide (S2366: Quadratech) as substrate (essentially as described by McEuen et. al. Biochem Pharm, 1996, 52, pages 331-340). Assays are performed at room temperature using 0.5 mM substrate (2×Km) in 50 mM Tris (pH 8.2), 100 mM NaCl, 0.05% Tween 20, 50 μg/mL heparin, and the microplate is read on a microplate reader (Beckman Biomek Plate reader) at 405 nm wavelength.
The protocol is essentially the same as above except that the compound is added in duplicates at the following final concentrations: 0.01, 0.03, 0.1, 0.3, 1, 3, 10 μM (All dilutions carried out manually). For every assay, whether single point or IC50 determination, a standard compound is used to derive IC50 for comparison. From the IC50 value, the Ki can be calculated using the following formula: Ki=IC50/(1+[Substrate]/Km).

T1 sequence (Q15661 31-275): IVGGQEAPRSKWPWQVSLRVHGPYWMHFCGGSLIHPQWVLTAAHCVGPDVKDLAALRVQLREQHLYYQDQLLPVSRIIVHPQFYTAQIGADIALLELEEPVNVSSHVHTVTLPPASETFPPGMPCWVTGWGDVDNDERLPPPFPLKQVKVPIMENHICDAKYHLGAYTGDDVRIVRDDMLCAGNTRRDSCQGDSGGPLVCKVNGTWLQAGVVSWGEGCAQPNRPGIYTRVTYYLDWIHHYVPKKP

SMILES: COCCn1cc(C(=O)N2CCC(c3cc(CN)ccc3F)CC2)c2c(OC(F)(F)F)ccc(F)c21.COCCn1cc(C(=O)N2CCC(c3cc(CN)ccc3F)CC2)c2c(OC(F)(F)F)ccc(F)c21.O.O.O=C(O)/C=C/C(=O)O.O=C(O)/C=C/C(=O)O.O=C(O)/C=C/C(=O)O [Fumarate Salt, [4-(5-Aminomethyl-2-fluorophenyl)piperidine-1-yl][7-fluoro-1-(2-methoxyethyl)-4-trifluoromethoxy-1H-indol-3-yl]methanone Sesquifumarate Monohydrate]
- Increase in Airway Resistance (Area Under Curve) ([1]; 0.01 mg/kg oral): 9647 +/− 818
- Dynamic Lung Compliance (Area Under Curve) ([1]; 0.01 mg/kg oral): −1218 +/− 47
- Increase in Airway Resistance (Area Under Curve) ([1]; 0.03 mg/kg oral): 8103 +/− 745
- Dynamic Lung Compliance (Area Under Curve) ([1]; 0.03 mg/kg oral): −1156 +/− 40
- Increase in Airway Resistance (Area Under Curve) ([1]; 0.1 mg/kg oral): 6623 +/− 511
- Dynamic Lung Compliance (Area Under Curve) ([1]; 0.1 mg/kg oral): −1004 +/− 43
- Inhibition of antigen-induced airway hyperreactivity (in words) ([1]; dosed 24 hours prior to allergen challenge, guinea pig, oral): dose-related inhibition of antigen-induced airway hyperreactivity

SMILES: COCCn1cc(C(=O)N2CCC(c3cc(CN)ccc3F)CC2)c2c(OC(F)(F)F)ccc(F)c21.O=C(O)c1ccccc1 [benzoate salt, [4-(5-Aminomethyl-2-fluorophenyl)piperidine-1-yl][7-fluoro-1-(2-methoxyethyl)-4-trifluoromethoxy-1H-indol-3-yl]methanone Benzoate]
- Solid form stability in aqueous suspension (XRPD and thermal analysis) [2]: no free base or conversions to hydrate form were noted

SMILES: COCCn1cc(C(=O)N2CCC(c3cc(CN)ccc3F)CC2)c2c(OC(F)(F)F)ccc(F)c21 [compound of formula I, [4-(5-aminomethyl-2-fluoro-phenyl)-piperidin-1-yl]-[7-fluoro-1-(2-methoxy-ethyl)-4-trifluoromethoxy-1H-indol-3-yl]-methanone]
- Ki [3]: 26 ± 5 nM
